Measurements: PubChem BioAssay (NCI)
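Values below derive from 48-hour exposures of cells grown in 96-well plates, with endpoints linearly interpolated between the two concentrations bracketing the appropriate inhibition level. GI50 is the concentration that inhibits growth by half. TGI: total growth inhibition.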

Experiments:
Experiment in all cases: inhibition of tumour cell growth, NCI panel, 48 h
MOLT-4 leukemia = tested on: MOLT-4 leukemia
NCI-H226 lung = tested on: NCI-H226 lung
NCI-H23 lung = tested on: NCI-H23 lung
NCI-H460 lung = tested on: NCI-H460 lung
NCI-H522 lung = tested on: NCI-H522 lung
OVCAR-3 ovarian = tested on: OVCAR-3 ovarian
OVCAR-4 ovarian = tested on: OVCAR-4 ovarian
OVCAR-5 ovarian = tested on: OVCAR-5 ovarian
OVCAR-8 ovarian = tested on: OVCAR-8 ovarian
PC-3 prostate = tested on: PC-3 prostate
RPMI-8226 leukemia = tested on: RPMI-8226 leukemia
RXF 393 renal = tested on: RXF 393 renal
SF-268 CNS = tested on: SF-268 CNS
SF-295 CNS = tested on: SF-295 CNS
SF-539 CNS = tested on: SF-539 CNS
SK-MEL-2 melanoma = tested on: SK-MEL-2 melanoma
SK-MEL-28 melanoma = tested on: SK-MEL-28 melanoma
SK-MEL-5 melanoma = tested on: SK-MEL-5 melanoma
SK-OV-3 ovarian = tested on: SK-OV-3 ovarian
SN12C renal = tested on: SN12C renal
SNB-19 CNS = tested on: SNB-19 CNS
SR leukemia = tested on: SR leukemia
SW-620 colon = tested on: SW-620 colon
T-47D breast = tested on: T-47D breast
TK-10 renal = tested on: TK-10 renal
U251 CNS = tested on: U251 CNS
UACC-257 melanoma = tested on: UACC-257 melanoma
UACC-62 melanoma = tested on: UACC-62 melanoma
UO-31 renal = tested on: UO-31 renal

With `COc1ccc(-c2cc(-c3cc(OC)c(OC)c(OC)c3)[nH]c(=O)c2C#N)cc1` as the compound, how does the TGI (MOLT-4 leukemia) read?
Its TGI is greater than 100 µM.

What about the GI50 (NCI-H226 lung) of the same compound?
Its GI50 is 5.6 µM.

And the TGI (NCI-H226 lung)?
The TGI was 24.9 µM.

What about the GI50 (NCI-H23 lung) of the same compound?
The GI50 was 18.9 µM.

What about the TGI (NCI-H23 lung) of the same compound?
Its TGI is 62.1 µM.

What about the GI50 (NCI-H460 lung) of the same compound?
The GI50 was 12.9 µM.

And the TGI (NCI-H460 lung)?
The TGI was 44.3 µM.

And the GI50 (NCI-H522 lung)?
The GI50 was 20.3 µM.

And the TGI (NCI-H522 lung)?
Its TGI is 64.4 µM.

What about the GI50 (OVCAR-3 ovarian) of the same compound?
Its GI50 is 62.7 µM.

What about the TGI (OVCAR-3 ovarian) of the same compound?
The TGI was greater than 100 µM.

What about the GI50 (OVCAR-4 ovarian) of the same compound?
The GI50 was 4.24 µM.

What about the TGI (OVCAR-4 ovarian) of the same compound?
Its TGI is 29.8 µM.

What about the GI50 (OVCAR-5 ovarian) of the same compound?
Its GI50 is greater than 100 µM.

What about the TGI (OVCAR-5 ovarian) of the same compound?
Its TGI is greater than 100 µM.

What about the GI50 (OVCAR-8 ovarian) of the same compound?
The GI50 was 4.3 µM.

And the TGI (OVCAR-8 ovarian)?
The TGI was 22.4 µM.

And the GI50 (PC-3 prostate)?
The GI50 was 25.5 µM.

What about the TGI (PC-3 prostate) of the same compound?
The TGI was greater than 100 µM.

And the GI50 (RPMI-8226 leukemia)?
Its GI50 is greater than 100 µM.

And the TGI (RPMI-8226 leukemia)?
Its TGI is greater than 100 µM.

What about the GI50 (RXF 393 renal) of the same compound?
The GI50 was 2.35 µM.

And the TGI (RXF 393 renal)?
Its TGI is 12.1 µM.

What about the GI50 (SF-268 CNS) of the same compound?
The GI50 was 16.9 µM.

What about the TGI (SF-268 CNS) of the same compound?
The TGI was 79.5 µM.

What about the GI50 (SF-295 CNS) of the same compound?
Its GI50 is 12.3 µM.

What about the TGI (SF-295 CNS) of the same compound?
The TGI was 32.3 µM.

And the GI50 (SF-539 CNS)?
The GI50 was 5.79 µM.

And the TGI (SF-539 CNS)?
The TGI was 20.2 µM.

What about the GI50 (SK-MEL-2 melanoma) of the same compound?
Its GI50 is 14.6 µM.

And the TGI (SK-MEL-2 melanoma)?
Its TGI is 30.8 µM.

What about the GI50 (SK-MEL-28 melanoma) of the same compound?
Its GI50 is 46 µM.

And the TGI (SK-MEL-28 melanoma)?
Its TGI is greater than 100 µM.

And the GI50 (SK-MEL-5 melanoma)?
Its GI50 is 17.1 µM.

What about the TGI (SK-MEL-5 melanoma) of the same compound?
The TGI was 64.7 µM.

What about the GI50 (SK-OV-3 ovarian) of the same compound?
Its GI50 is 7.52 µM.

And the TGI (SK-OV-3 ovarian)?
Its TGI is 26.7 µM.

What about the GI50 (SN12C renal) of the same compound?
Its GI50 is 3.8 µM.

And the TGI (SN12C renal)?
The TGI was 61.6 µM.

And the GI50 (SNB-19 CNS)?
Its GI50 is 6.4 µM.

What about the TGI (SNB-19 CNS) of the same compound?
The TGI was 35.8 µM.

What about the GI50 (SR leukemia) of the same compound?
The GI50 was greater than 100 µM.

What about the TGI (SR leukemia) of the same compound?
Its TGI is greater than 100 µM.

And the GI50 (SW-620 colon)?
Its GI50 is 71.8 µM.

And the TGI (SW-620 colon)?
The TGI was greater than 100 µM.

What about the GI50 (T-47D breast) of the same compound?
Its GI50 is 7.72 µM.

What about the TGI (T-47D breast) of the same compound?
Its TGI is greater than 100 µM.

And the GI50 (TK-10 renal)?
Its GI50 is 19.8 µM.

What about the TGI (TK-10 renal) of the same compound?
The TGI was greater than 100 µM.

And the GI50 (U251 CNS)?
Its GI50 is 4.48 µM.

And the TGI (U251 CNS)?
Its TGI is 22.4 µM.

And the GI50 (UACC-257 melanoma)?
The GI50 was 76.6 µM.

What about the TGI (UACC-257 melanoma) of the same compound?
Its TGI is greater than 100 µM.

And the GI50 (UACC-62 melanoma)?
The GI50 was 27.2 µM.

And the TGI (UACC-62 melanoma)?
Its TGI is greater than 100 µM.

What about the GI50 (UO-31 renal) of the same compound?
Its GI50 is 3.54 µM.

And the TGI (UO-31 renal)?
The TGI was 25.2 µM.
